Entries after “also recorded” stand apart in the source; their conditions may differ.
What was measured:
[1] = system: human neutrophils; assay: In vitro TRAP formation by human blood neutrophils (PMNs) cultured with test agents; type: cell-based; details: for TRAP formation in human neutrophils: FIG. 12, human blood neutrophils cultured with agent; for TRAP formation at higher dilution than 1/5: PMNs; for TRAP formation at 1/5 dilution: PMNs of 3 donors, 4 hr timeline, vs negative control
Experimental: From left to right and top to bottom (A)-(F), media only (A) and PMA (B), a known inducer of TRAPS in human neutrophils, present positive control.
PMA=phorbol myristate acetate; Insulin is Humalog (Lilly); LPS is a bacterial endotoxin (known inducers of TRAPs.
Green color (light color in grayscale) indicates the existence of TRAPs. In each slide set, the upper left slide is the control with media only. The upper right slide is Humalog insulin in media at 1/5 dilution (0.6 mg m-cresol/ml, with 0.6 mg/ml of insulin), PMA concentrations are in ng/ml and the lower right slide is m-cresol at 1/5 dilution (0.6 mg/ml of m-cresol). In this study, the media was RPMI 1640 (phenol free).
In these examples, human blood neutrophils were placed in a culture dish+/−sensors in vitro. […] Brightfield refers to the use of non-fluorescent white light (78a). […] In FIG. 79, neutrophils were added to tissue culture dishes that contained a sensor (commercial type #1) to see if the sensor could directly trigger neutrophil death and TRAP release which we detect with fluorescent dyes like sytox green. FIG. 79a-c had no neutrophils added to the sensors. In FIG. 79d-f neutrophils were added. The sytox green binds to DNA, and fluoresces green in color photo, or white in black and white photos. […] “Merged” refers to photos in which the non-fluorescent (brightfield) and fluorescent photos are merged into a single photo FIG. 79c.

[2] = system: porcine skin; assay: In vivo TRAP formation at infusion/injection sites in swine skin (H&E histology); details: infused continuously over a 5- to 7-day period
From the text: The presence of the purple web appearance is indicated by the black arrows.
White area in the center of the image is the previous location of the injection port.

CNc1ccc2oc(C[C@H]3O[C@@]4(CC[C@H]3C)O[C@H]([C@H](C)C(=O)c3ccc[nH]3)[C@H](C)C[C@H]4C)nc2c1C(=O)O [A23187, calcimycin]
TRAPs in neutrophils, positive control ([1]; FIG. 77 d-f, human neutrophils in culture dish): triggers TRAPs

CCCCCCCCCCCCCC(=O)O[C@@H]1[C@@H](C)[C@@]2(O)[C@@H](C=C(CO)C[C@]3(O)C(=O)C(C)=C[C@@H]23)[C@@H]2C(C)(C)[C@]12OC(C)=O [PMA, phorbol myristate acetate]
TRAPs at 30 minutes ([1]; FIG. 60B, human PMNs, RPMI 1640): presence of TRAPs | TRAPs at 60 minutes ([1]; FIG. 60C, Humalog insulin 1/5 dilution): significant TRAPs | TRAP formation in PMNs of 3 donors ([1]; dilution not specified, positive controls and insulin fibrils lacking PP): trigger TRAP formation; also recorded: triggered TRAPs | time after exposure until TRAPs are triggered ([1]; human PMNs, commercial insulin and m-cresol at 1/5 dilution): ≤ 60 min

Cc1cccc(O)c1 [m-cresol]
TRAP formation in human neutrophils [1]: trigger TRAP formation | TRAPs from 120 minutes to 150 minutes ([1]; FIGS. 60E-60F, 1/5 dilution (0.6 mg/ml m-cresol)): significant increase in the presence of TRAPs | number and size of TRAPs from 180 minutes to 240 minutes ([1]; FIGS. 60G-60I, 1/5 dilution): remained relatively stable | TRAP formation at higher dilution than 1/5 [1]: weak to no TRAP formation | TRAP formation at 1/5 dilution [1]: strong | TRAPS in swine tissue [2]: presence of TRAPS

Oc1ccccc1 [phenol]
TRAP formation in human neutrophils [1]: trigger TRAP formation | TRAP formation at higher dilution than 1/5 [1]: weak to no TRAP formation | TRAP formation at 1/5 dilution [1]: triggered TRAP formation | TRAP formation at 1/5 dilution ([1]; listed as Phenol): strong traps

— patent US20250090729A1, “Methods and Products to Detect, Minimize and Treat TRAP-Related Tissue Reactions and Tissue Injury Associated With Medical Devices” (priority 2022, published 2025)
